# Laboratory results reported in patent publication US20160106813A1 (CENTRE NATIONAL DE LA RECHERCHE SCHIENTIFIQUE (CNRS), priority 2013, published 2016).
# Ends that are not written are not given here.
# Legend:
# [1] = system: HIV-1; conditions: agent added during co-culture; dose-dependent
# Procedure: Normal goat IgG, neutralizing CCL3/MIP-1α goat Ab (R&D systems, Minneapolis, Minn., USA), or the NFκB inhibitor BAY117082 (Santa Cruz Biotechnology, Santa Cruz, Calif., USA), were included during the co-culture period (MDLC-TC) described previously. HIV-1 replication was measured in the co-culture supernatants a week later by p24 ELISA (Innotest; Innogenetics, Gent, Belgium).
# [2] = system: CCL3/MIP-1α; assay: CCL3/MIP-1α levels in LC-TC co-culture supernatants, multiplex assay and flow cytometry; format: cell-based, human; conditions: highest concentration of BAY117082, n=4
# [3] = system: HIV-1 JRCSF; assay: HIV-1 transfer from monocyte-derived Langerhans cells (MDLC) to CD4+ T-cells, p24 ELISA of co-culture supernatants; format: cell-based
# Procedure: Peripheral blood mononuclear cells (PBMCs) from healthy donors were separated from whole blood by a standard Ficoll gradient. CD14+ monocytes and CD4+ TCs were obtained from PBMCs by negative magnetic selection (Stemcell Technologies, Grenoble, France) according to the manufacturer's instructions. MDLC were prepared and maintained as described (Masterson et al., Blood 100:701-703; Geissmann et al., J Exp Med 187:961-966.)
molecule,measurement,setting,value
Cc1ccc(S(=O)(=O)/C=C/C#N)cc1 [BAY117082],effect on CGRP-mediated HIV-1 transfer inhibition,[1],abrogated
same,"CGRP-induced CCL3/MIP-1α secretion in presence of inhibitor, mean±s.e.m fold",[2],1.0±0.1 fold
Ala-Cys-Asn-Thr-Ala-Thr-Cys-Val-Thr-His-Arg-Leu-Ala-Gly-Leu-Leu-Ser-Arg-Ser-Gly-Gly-Met-Val-Lys-Ser-Asn-Phe-Val-Pro-Thr-Asn-Val-Gly-Ser-Lys-Ala-Phe-NH2 (ACNTATCVTHRLAGLLSRSGGMVKSNFVPTNVGSKAF-NH2; ends and bridges not checked) [beta CGRP],HIV-1 transfer from Langerhans cells to TCs (in words),"[3]; MDLCs pretreated with the peptide, pulsed with HIV-1 JRCSF (R5), co-cultured a week with CD4+ TCs",inhibit HIV-1 transfer
"CGRP8-37: truncated CGRP receptor antagonist (VTHRLAGLLSRSGGVVKNNFVPTNVGSKAF; ends and bridges not checked; UniProt P06881 90-119, looked up, fragment)",effect on the inhibitory effect of CGRP on HIV-1 transfer,[3]; 1000 nM CGRP8-37 added 10 min before CGRP,completely abrogated
